The source of these data is ChEMBL document CHEMBL4028802, “DILIrank: the largest reference drug list ranked by the risk for developing drug-induced liver injury in humans” (Drug Discov Today, 2016).

Each structure is given as a SMILES string. Positions of bridges follow the written chain, without caps; N, C: chain ends. Non-standard residues stand in square brackets, D forms with d. Residues, ends and D or L forms follow the SMILES beside them. *: point of attachment. Ileψ(thiazoline)Cys = CC[C@H](C)[C@H](N)C1=N[C@H](C(=O)*)CS1; dOrn = NCCC[C@@H](N)C(=O)O

The species entered for data set [1] is Homo sapiens. The data set can be described thus: Liver toxicity in human assessed as induction of drug-induced liver injury by measuring severity class index.
The species entered for data set [2] is Homo sapiens. The data set can be described thus: Liver toxicity in human assessed as induction of drug-induced liver injury by measuring verified drug-induced liver injury concern status.
Wherever DILI severity class is given: key of the grades not given here.

As for `CC(C)NCC(O)COc1ccc(CC(N)=O)cc1` (configuration not stated) [ATENOLOL], the DILI_severity_class in data set [1] is reported as 4. The DILI_Concern entry in data set [2] is “Less-Dili-Concern”.
The like results for `CNCC[C@@H](Oc1ccccc1C)c1ccccc1` [ATOMOXETINE] were, in that order, 8 and “Most-Dili-Concern”.
For `CC(C)c1c(C(=O)Nc2ccccc2)c(-c2ccccc2)c(-c2ccc(F)cc2)n1CC[C@@H](O)C[C@@H](O)CC(=O)O` [ATORVASTATIN], in that order: 5 and “Most-Dili-Concern”.
As for `O=C1C(O)=C([C@H]2CC[C@H](c3ccc(Cl)cc3)CC2)C(=O)c2ccccc21` [ATOVAQUONE], the DILI_severity_class in data set [1] came out at 8. In data set [2], the DILI_Concern result is recorded as “Ambiguous-Dili-Concern”.
The like results for `CN1[C@@H]2CC[C@H]1C[C@@H](OC(=O)C(CO)c1ccccc1)C2` (some centres not stated) [ATROPINE] were, in that order, 0 and “No-Dili-Concern”.
As to `Nc1ncn([C@@H]2O[C@H](CO)[C@@H](O)[C@H]2O)c(=O)n1` [AZACITIDINE], the DILI_severity_class in data set [1] is given as 8. Further, the DILI_Concern result in data set [2] is on record as “Ambiguous-Dili-Concern”.
The like results for `Cn1cnc([N+](=O)[O-])c1Sc1ncnc2nc[nH]c12` [AZATHIOPRINE] were, in that order, 5 and “Most-Dili-Concern”.
The like results for `CC[C@H]1OC(=O)[C@H](C)[C@@H](O[C@H]2C[C@@](C)(OC)[C@@H](O)[C@H](C)O2)[C@H](C)[C@@H](O[C@@H]2O[C@H](C)C[C@H](N(C)C)[C@H]2O)[C@](C)(O)C[C@@H](C)CN(C)[C@H](C)[C@@H](O)[C@]1(C)O` [AZITHROMYCIN] were, in that order, 7 and “Less-Dili-Concern”.
For `C[C@H]1[C@H](NC(=O)/C(=N\OC(C)(C)C(=O)O)c2csc(N)n2)C(=O)N1S(=O)(=O)O` [AZTREONAM], in that order: 5 and “Ambiguous-Dili-Concern”.
In the case of `CC[C@H](C)[C@H](N)C1=N[C@H](C(=O)N[C@@H](CC(C)C)C(=O)N[C@H](CCC(=O)O)C(=O)N[C@H](C(=O)N[C@H]2CCCCNC(=O)[C@H](CC(N)=O)NC(=O)[C@@H](CC(=O)O)NC(=O)[C@H](Cc3cnc[nH]3)NC(=O)[C@@H](Cc3ccccc3)NC(=O)[C@H]([C@@H](C)CC)NC(=O)[C@@H](CCCN)NC2=O)[C@@H](C)CC)CS1` [BACITRACIN] ({Ileψ(thiazoline)Cys}-L[dE]IK[dOrn]I[dF]H[dD]N; lactam 4-C), the DILI_severity_class in data set [1] was 0. For the same compound, in data set [2], the DILI_Concern result is given as “No-Dili-Concern”.
On to `NCC(CC(=O)O)c1ccc(Cl)cc1` (configuration not stated) [BACLOFEN], for which the DILI_severity_class in data set [1] was found to be 3. Further, the DILI_Concern entry in data set [2] is given as “Less-Dili-Concern”.
For `O=C(O)CCNC(=O)c1ccc(/N=N/c2ccc(O)c(C(=O)O)c2)cc1` [BALSALAZIDE], in that order: 8 and “Ambiguous-Dili-Concern”.
For `CCOC(=O)[C@H](CCc1ccccc1)N[C@H]1CCc2ccccc2N(CC(=O)O)C1=O` [BENAZEPRIL], in that order: 4 and “Less-Dili-Concern”.
As to `Cn1c(CCCC(=O)O)nc2cc(N(CCCl)CCCl)ccc21` [BENDAMUSTINE], the DILI_severity_class in data set [1] turned out to be 0. In addition, the DILI_Concern result in data set [2] is listed as “No-Dili-Concern”.
For `O=C(O)COc1nn(Cc2ccccc2)c2ccccc12` [BENDAZAC], in that order: 8 and “Most-Dili-Concern”.
On to `NS(=O)(=O)c1cc2c(cc1C(F)(F)F)NC(Cc1ccccc1)NS2(=O)=O` (configuration not stated) [BENDROFLUMETHIAZIDE], for which the DILI_severity_class in data set [1] was 5. In data set [2], the DILI_Concern entry is given as “Less-Dili-Concern”.
Consider `CC(C(=O)O)c1ccc2oc(-c3ccc(Cl)cc3)nc2c1` (configuration not stated) [BENOXAPROFEN], for which, in data set [1], the DILI_severity_class was 8. Moreover, in data set [2], the DILI_Concern result is given as “Most-Dili-Concern”.
For `CCc1oc2ccccc2c1C(=O)c1ccc(O)cc1` [BENZARONE], the DILI_severity_class in data set [1] was 8. Moreover, the DILI_Concern entry in data set [2] is given as “Most-Dili-Concern”.
Turning to `CCc1oc2ccccc2c1C(=O)c1cc(Br)c(O)c(Br)c1` [BENZBROMARONE], the DILI_severity_class in data set [1] came out at 8. For the same compound, the DILI_Concern result in data set [2] is “Most-Dili-Concern”.
Regarding `CCc1oc2ccccc2c1C(=O)c1cc(I)c(O)c(I)c1` [BENZIODARONE], the DILI_severity_class in data set [1] was 8. In addition, the DILI_Concern entry in data set [2] is on record as “Most-Dili-Concern”.
The like results for `CCCCNc1ccc(C(=O)OCCOCCOCCOCCOCCOCCOCCOCCOCCOC)cc1` [BENZONATATE] were, in that order, 0 and “Less-Dili-Concern”.
On to `C[C@@H](Cc1ccccc1)N(C)Cc1ccccc1` [BENZPHETAMINE], for which the DILI_severity_class in data set [1] is recorded as 0. Besides, the DILI_Concern result in data set [2] is recorded as “No-Dili-Concern”.
The like results for `CN1[C@@H]2CC[C@H]1C[C@@H](OC(c1ccccc1)c1ccccc1)C2` [BENZTROPINE] were, in that order, 0 and “No-Dili-Concern”.
On to `C[N+](C)(C)CC(=O)O` [BETAINE], for which the DILI_severity_class in data set [1] is recorded as 0. The DILI_Concern result in data set [2] is reported as “No-Dili-Concern”.
For `CC(C)NCC(O)COc1ccc(CCOCC2CC2)cc1` (configuration not stated) [BETAXOLOL], in that order: 3 and “Ambiguous-Dili-Concern”.
For `CC(C[N+](C)(C)C)OC(N)=O` (configuration not stated) [BETHANECHOL], in that order: 0 and “No-Dili-Concern”.
For `C=C(c1ccc(C(=O)O)cc1)c1cc2c(cc1C)C(C)(C)CCC2(C)C` [BEXAROTENE], in that order: 8 and “Most-Dili-Concern”.
In the case of `CC(O)(CS(=O)(=O)c1ccc(F)cc1)C(=O)Nc1ccc(C#N)c(C(F)(F)F)c1` (configuration not stated) [BICALUTAMIDE], the DILI_severity_class in data set [1] came to 8. The DILI_Concern result in data set [2] is “Most-Dili-Concern”.
The like results for `OC(CCN1CCCCC1)(c1ccccc1)C1CC2C=CC1C2` (configuration not stated) [BIPERIDEN] were, in that order, 0 and “No-Dili-Concern”.
The like results for `CC(=O)Oc1ccc(C(c2ccc(OC(C)=O)cc2)c2ccccn2)cc1` [BISACODYL] were, in that order, 0 and “No-Dili-Concern”.
For `CC(C)NCC(O)COc1ccc(COCCOC(C)C)cc1` (configuration not stated) [BISOPROLOL], in that order: 3 and “Ambiguous-Dili-Concern”.
With `CC(C)C[C@H](NC(=O)[C@H](Cc1ccccc1)NC(=O)c1cnccn1)B(O)O` [BORTEZOMIB], the DILI_severity_class in data set [1] came to 7. Further, the DILI_Concern entry in data set [2] is “Most-Dili-Concern”.
In the case of `COc1ccccc1Oc1c(NS(=O)(=O)c2ccc(C(C)(C)C)cc2)nc(-c2ncccn2)nc1OCCO` [BOSENTAN], the DILI_severity_class in data set [1] is 7. In data set [2], the DILI_Concern entry is on record as “Most-Dili-Concern”.
As to `Nc1c(CC(=O)O)cccc1C(=O)c1ccc(Br)cc1` [BROMFENAC], the DILI_severity_class in data set [1] is recorded as 8. The DILI_Concern entry in data set [2] is on record as “Most-Dili-Concern”.
The like results for `CC(C)C[C@H]1C(=O)N2CCC[C@H]2[C@]2(O)O[C@](NC(=O)[C@@H]3C=C4c5cccc6[nH]c(Br)c(c56)C[C@H]4N(C)C3)(C(C)C)C(=O)N12` [BROMOCRIPTINE] were, in that order, 3 and “Less-Dili-Concern”.
Regarding `CN(C)CCC(c1ccc(Br)cc1)c1ccccn1` (configuration not stated) [BROMPHENIRAMINE], in data set [1], the DILI_severity_class amounted to 0. For the same compound, the DILI_Concern result in data set [2] is “No-Dili-Concern”.
The like results for `CCCC1O[C@@H]2C[C@H]3[C@@H]4CCC5=CC(=O)C=C[C@]5(C)[C@H]4[C@@H](O)C[C@]3(C)[C@]2(C(=O)CO)O1` (some centres not stated) [BUDESONIDE] were, in that order, 0 and “No-Dili-Concern”.
For `CCCCNc1cc(C(=O)O)cc(S(N)(=O)=O)c1Oc1ccccc1` [BUMETANIDE], in that order: 3 and “Ambiguous-Dili-Concern”.
For `CC(NC(C)(C)C)C(=O)c1cccc(Cl)c1` (configuration not stated) [BUPROPION], in that order: 5 and “Less-Dili-Concern”.
Turning to `O=C1CC2(CCCC2)CC(=O)N1CCCCN1CCN(c2ncccn2)CC1` [BUSPIRONE], the DILI_severity_class in data set [1] is given as 3. Moreover, the DILI_Concern result in data set [2] is recorded as “Ambiguous-Dili-Concern”.
For `CS(=O)(=O)OCCCCOS(C)(=O)=O` [BUSULFAN], in that order: 8 and “Most-Dili-Concern”.
For `CCC(C)C1(CC)C(=O)NC(=O)NC1=O` (configuration not stated) [BUTABARBITAL], in that order: 3 and “Ambiguous-Dili-Concern”.
For `Oc1ccc2c(c1)[C@@]13CCCC[C@@]1(O)[C@@H](C2)N(CC1CCC1)CC3` [BUTORPHANOL], in that order: 0 and “No-Dili-Concern”.
Regarding `C=CCN1C[C@H](C(=O)N(CCCN(C)C)C(=O)NCC)C[C@@H]2c3cccc4[nH]cc(c34)C[C@H]21` [CABERGOLINE], the DILI_severity_class in data set [1] stood at 0. The DILI_Concern result in data set [2] is listed as “No-Dili-Concern”.
For the compound `Cn1c(=O)c2c(ncn2C)n(C)c1=O` [CAFFEINE], the DILI_severity_class in data set [1] amounted to 0. The DILI_Concern result in data set [2] is recorded as “No-Dili-Concern”.
`CC(C)C[C@H](NC(=O)[C@H](CCCCN)NC(=O)CNC(=O)[C@H](CC(C)C)NC(=O)[C@@H](NC(=O)[C@@H]1CSSC[C@H](N)C(=O)N[C@@H](CO)C(=O)N[C@@H](CC(N)=O)C(=O)N[C@@H](CC(C)C)C(=O)N[C@@H](CO)C(=O)N[C@@H]([C@@H](C)O)C(=O)N1)C(C)C)C(=O)N[C@@H](CO)C(=O)N[C@@H](CCC(N)=O)C(=O)N[C@@H](CCC(=O)O)C(=O)N[C@@H](CC(C)C)C(=O)N[C@@H](Cc1c[nH]cn1)C(=O)N[C@@H](CCCCN)C(=O)N[C@@H](CC(C)C)C(=O)N[C@@H](CCC(N)=O)C(=O)N[C@H](C(=O)N[C@@H](Cc1ccc(O)cc1)C(=O)N1CCC[C@H]1C(=O)N[C@@H](CCCNC(=N)N)C(=O)N[C@H](C(=O)N[C@@H](CC(N)=O)C(=O)N[C@H](C(=O)NCC(=O)N[C@@H](CO)C(=O)NCC(=O)N[C@H](C(=O)N1CCC[C@H]1C(N)=O)[C@@H](C)O)[C@@H](C)O)[C@@H](C)O)[C@@H](C)O` [CALCITONIN SALMON]: the DILI_severity_class in data set [1] is 0. In data set [2], the DILI_Concern entry was “No-Dili-Concern”.
